Where “and” joins values, the source holds several entries; their conditions need not be identical. Identical values can stand only once.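 Briefly, cells in 96-well plates were exposed to five compound concentrations for 48 h, and endpoints were estimated by linear interpolation. GI50 marks 50% less growth. TGI marks complete inhibition of growth.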
Assays:
Experiment in all cases: inhibition of tumour cell growth, NCI panel, 48 h
M14 melanoma = system: M14 melanoma
SK-MEL-28 melanoma = system: SK-MEL-28 melanoma
UACC-257 melanoma = system: UACC-257 melanoma
K-562 leukemia = system: K-562 leukemia
COLO 205 colon = system: COLO 205 colon
A549 NSCLC = system: A549 NSCLC
NCI-H522 lung = system: NCI-H522 lung
KM12 colon = system: KM12 colon
SW-620 colon = system: SW-620 colon
ACHN renal = system: ACHN renal

Row | Structure (SMILES) | TGI (M14 melanoma) [µM] | TGI (SK-MEL-28 melanoma) [µM] | TGI (UACC-257 melanoma) [µM] | TGI (K-562 leukemia) [µM] | TGI (COLO 205 colon) | TGI (A549 NSCLC) [µM] | TGI (NCI-H522 lung) [µM] | TGI (KM12 colon) [µM] | TGI (SW-620 colon) [µM] | TGI (ACHN renal) [µM] | GI50 (M14 melanoma) [µM] | GI50 (SK-MEL-28 melanoma) [µM] | GI50 (UACC-257 melanoma) [µM] | GI50 (K-562 leukemia) [µM] | GI50 (COLO 205 colon) [µM] | GI50 (A549 NSCLC) [µM] | GI50 (NCI-H522 lung) [µM] | GI50 (KM12 colon) [µM] | GI50 (SW-620 colon) [µM] | GI50 (ACHN renal) [µM]
1 | CN(CCN)[C@H](CSSC[C@@H](c1ccccc1O)N(C)CCN)c1ccccc1O | 33.5 | 33.5 | 32.8 | 24.3 | > 53.6 µM | 23.9 | 33 | 28.2 | > 57.3 | 22.6 | – | – | – | – | – | – | – | – | – | –
2 | O=C(Nc1cccc(-n2ccc3c(NC(=O)c4ccccc4)ncnc32)c1)Nc1ccc(Cl)c(C(F)(F)F)c1 | 5.98 | 9.44 | 8.43 | 50 | 8.36 µM | 7.35 | 6.31 | 8.16 | 10.1 | 7.38 | 1.75 | 2.75 | 2.67 | 1.61 | 2.67 | 2.11 | 1.36 | 1.95 | 3.26 | 1.59
3 | C[N+]1(C)CCCC(C#N)(c2ccccc2)CC1 (stereo not given) | > 100 | > 100 | > 100 | > 100 | > 100 µM | > 100 | – | > 100 | > 100 | > 100 | – | – | – | – | – | – | – | – | – | –
4 | O=C(NNC(=O)c1ccco1)c1ccco1 | > 100 | > 100 | > 100 | > 100 | > 100 µM | > 100 | > 100 | > 100 | > 100 | – | – | – | – | – | – | – | – | – | – | –
5 | Nc1nc(Cl)c(CO)c(NCC2(CO)CCC2)n1 | – | > 100 | > 100 | > 100 | > 100 µM | > 100 | > 100 | > 100 | > 100 | > 100 | – | – | – | – | – | – | – | – | – | –
6 | Cc1ccc(S(=O)(=O)OC[C@@]2(C)CC[C@]3(C)CC[C@]4(C)C(=C3C2)C=C[C@@H]2[C@@]3(C)CCCNC(C)(C)[C@@H]3CC[C@]24C)cc1 | – | 3.26 | – | – | – | – | 3.36 | 3.57 | 3.54 | 3.1 | – | 1.78 | – | – | – | – | 1.7 | 1.86 | 1.78 | 1.72
7 | O=c1cc(-c2cccc(OC(F)(F)F)c2)[nH]c2ccc(N3CCCC3)cc12 | > 100 | – | > 100 | – | 0.0204 µM and 0.0319 µM | 44.5 | – | 0.00249 | > 100 | 51.3 | – | – | – | – | – | – | – | – | – | –
8 | N#C[S-].[La+3].c1ccc(-c2ccccn2)nc1.c1ccc(-c2ccccn2)nc1.c1ccc(-c2ccccn2)nc1 | 27.9 | > 100 | 65.2 | – | > 100 µM | > 100 | – | > 100 | > 100 | – | 12.1 | 30.9 | 24.3 | – | 45.5 | 28.6 | – | 51 | 33.6 | –
9 | NC(CCC(=O)c1ccccn1)C(=O)O (stereo not given) | > 100 | > 100 | > 100 | – | > 100 µM | > 100 | > 100 | > 100 | > 100 | > 100 | – | – | – | – | – | – | – | – | – | –
10 | CC(=O)c1csc2c1C(=O)c1ccccc1C2=O | 2.65 | 5.07 | 2.92 | > 100 | 3.62 µM | 4.06 | 4.1 | 3.68 | 5.4 | 4.57 | – | – | – | – | – | – | – | – | – | –
11 | CCN(CC)c1c(C(C)(C)C)c(=O)n2ccsc2c1OC(C)=O | 31.2 | 30.8 | 30.7 | > 100 | 31.8 µM | 28.2 | 27.7 | 30.6 | 30.6 | 29.7 | – | – | – | – | – | – | – | – | – | –
12 | OCCc1ccsc1-c1sc(-c2cc(CCO)c(-c3sc(-c4cc(CCO)c(-c5sccc5CCO)s4)cc3CCO)s2)cc1CCO | 3.36 | 3.27 | 2.9 | – | 5.03 µM | 2.2 | 2.36 | 1.9 | 3.98 | 3 | – | – | – | – | – | – | – | – | – | –
13 | CSc1cc(Cl)c(C)cc1S(=O)(=O)NC(=O)NNc1ccc(C)cc1 | > 100 | > 100 | – | > 100 | > 100 µM | > 100 | > 100 | > 100 | > 100 | > 100 | – | – | – | – | – | – | – | – | – | –
14 | COc1cc(/C=C(\C)[N+](=O)[O-])cc(OC)c1 | 28.2 | 33.2 | 31 | 5.52 | 20.1 µM | 61.5 | 3.64 | 36.8 | 9.16 | 30.3 | – | – | – | – | – | – | – | – | – | –
15 | O=C1c2cc3c(cc2NC(c2ccccc2F)C1O)OCO3 (stereo not given) | > 100 | > 79.4 | > 100 | > 100 | > 39.8 µM | > 63.1 | 34.4 | > 100 | > 100 | > 100 | – | – | – | – | – | – | – | – | – | –
16 | Cc1ccc(S(=O)(=O)N/N=C2\C=CC3(CC2)C(=O)N(I)c2ccccc23)cc1 (stereo not given) | > 100 | > 100 | > 100 | > 100 | > 100 µM | > 100 | – | > 100 | > 100 | > 100 | – | – | – | – | – | – | – | – | – | –
17 | COc1ccc(OC)c2c(C(C)=O)cccc12 | – | > 100 | > 100 | > 100 | > 100 µM | > 100 | > 100 | > 100 | > 100 | > 100 | – | – | – | – | – | – | – | – | – | –
18 | O=C(/C=C/c1ccc(OCc2ccccc2)cc1)NCc1ccc(C(=O)NCCc2ccccc2)cc1 | > 100 | > 100 | > 100 | – | > 100 µM | > 100 | > 100 | > 100 | > 100 | > 100 | – | – | – | – | – | – | – | – | – | –
19 | Cc1ccc(C2=CC(=O)/C(=C\C(=O)c3ccc(Br)cc3)O2)c(C)c1 | 35.3 | 40.1 | > 48.6 | 16.4 | 14.3 µM | 48.4 | 3.38 | 48.6 | – | 12.3 | – | – | – | – | – | – | – | – | – | –
20 | CCOC(=O)[C@@]12C[C@](/C=C/OC)(O[Si](C)(C)C)[C@@]13c1cc(OC)c(OC)cc1CCN3C(=O)C2=O | > 100 | > 100 | > 100 | > 100 | > 100 µM | > 100 | – | > 100 | > 100 | > 100 | – | – | – | – | – | – | – | – | – | –
